# System: Eotaxin-3 release in human whole blood stimulated with IL-4
# Assay: Human Whole Blood Eotaxin-3 Assay (IL-4 stimulated eotaxin-3 release)
# Format: cell-based
# Conditions: IL-4 stimulation, 48 h, values given for compounds with >80% Emax, geometric mean
# Method: Human Whole Blood Eotaxin-3 Assay
# This was a human whole blood assay using recombinant human Interleukin 4 to stimulate the blood and measuring the ability of the test compounds to inhibit eotaxin-3 release. The biological activities of the test compounds have been tested in human whole blood stimulated with IL-4 measuring Eotaxin-3 release. The test compounds were added to 384 well clear flat-bottom plate in a 4-fold serial dilution in triplicates using a liquid handler. Human whole blood stabilized in lithium-heparin tubes was added in a volume of 65 μL per well, resulting in a final DMSO concentration of 0.5%. The plate is incubated for 2 h at 37° C. under 5% CO2/95% air. Subsequently, 5 μL of recombinant human IL-4 (R&D Systems, cat #204-ILB) was added to the wells to a final concentration of […]. The plate was incubated for 48 h at 37° C. under 5% CO2/95% air. The plate was spun down for 10 minutes at 500×g and 20 μL supernatant was harvested and transferred to a 384 well v-bottom plate using a liquid handler and stored at −20° C. until further analysis. 10 μL supernatant was used to measure the level of Eotaxin-3 (CCL26) using Human Eotaxin-3 MSD kit from Mesocsale (Cat #K251UEK-4). The assay was performed according to the manufacture instructions.
# The data from the human whole blood eotaxin-3 assay is shown in FIG. 2 for Examples 3u208, 3u246, 3u118, 3u119, 3u120, and 3u74 (where the effect in % is plotted against the test concentration in M on a log scale).
row,EC50,SMILES
1,1210 nM,"CNc1cc(=O)n(-c2ccnc3c2cc([C@H](C)N2CC=C(c4c(C)cc(C(=O)N5CCC(CN6CCN(Cc7ccc8c(c7)C7(CC7)C(=O)N8C7CCC(=O)NC7=O)C[C@@H]6C)CC5)cc4F)CC2)n3C)cc1OC (stereo partly drawn) [Example 3u117, 3-(5′-(((S)-4-((1-(3-fluoro-4-(1-((S)-1-(4-(5-methoxy-4-(methylamino)-2-oxopyridin-1 (2H)-yl)-1-methyl-1H-pyrrolo[2,3-b]pyridin-2-yl)ethyl)-1,2,3,6-tetrahydropyridin-4-yl)-5-methylbenzoyl)piperidin-4-yl)methyl)-3-methylpiperazin-1-yl)methyl)-2′-oxospiro[cyclopropane-1,3′-indolin]-1′-yl)piperidine-2,6-dione]"
2,12.8 nM,"CNc1ccn(-c2ccnc3c2cc([C@H](C)N2CC=C(c4c(C)cc(C(=O)N5CCC(CN6CCN(c7ccc8c(c7)C(C)(C)C(=O)N8[C@H]7CCC(=O)NC7=O)CC6)CC5)cc4F)CC2)n3C)c(=O)c1 (single isomer, unassigned) [Example 3u280]"
3,11.2 nM,"CNc1ccn(-c2ccnc3c2cc([C@H](C)N2CC=C(c4c(C)cc(C(=O)N5CCn6c(nnc6C6CCN(c7ccc8c(c7)n(C)c(=O)n8C7CCC(=O)NC7=O)CC6)C5)cc4F)CC2)n3C)c(=O)c1 (stereo partly drawn) [Example 3u260, 3-(5-(4-(7-(3-fluoro-5-methyl-4-(1-((S)-1-(1-methyl-4-(4-(methylamino)-2-oxopyridin-1 (2H)-yl)-1H-pyrrolo[2,3-b]pyridin-2-yl)ethyl)-1,2,3,6-tetrahydropyridin-4-yl)benzoyl)-5,6,7,8-tetrahydro-[1,2,4]triazolo[4,3-a]pyrazin-3-yl)piperidin-1-yl)-3-methyl-2-oxo-2,3-dihydro-1H-benzo[d]imidazol-1-yl)piperidine-2,6-dione]"
4,126 nM,"CNc1cc(=O)n(-c2ccnc3c2cc([C@H](C)N2CC=C(c4c(C)cc(C(=O)N5CCC(O)(CC6CCN(c7ccc8c(c7)C7(CC7)C(=O)N8C7CCC(=O)NC7=O)CC6)CC5)cc4F)CC2)n3C)cc1F (stereo partly drawn) [Example 3u283, 3-(5′-(4-((1-(3-fluoro-4-(1-((S)-1-(4-(5-fluoro-4-(methylamino)-2-oxopyridin-1 (2H)-yl)-1-methyl-1H-pyrrolo[2,3-b]pyridin-2-yl)ethyl)-1,2,3,6-tetrahydropyridin-4-yl)-5-methylbenzoyl)-4-hydroxypiperidin-4-yl)methyl)piperidin-1-yl)-2′-oxospiro[cyclopropane-1,3′-indolin]-1′-yl)piperidine-2,6-dione]"
5,88.3 nM,"CNc1cc(=O)n(-c2ccnc3c2cc(CN2CCC(c4c(F)cc(C(=O)N5CCC(CN6CCN(c7ccc8c(c7)C7(CC7)C(=O)N8[C@H]7CCC(=O)NC7=O)CC6)CC5)cc4F)CC2)n3C)cc1F (single isomer, unassigned) [Example 3u288]"
6,7.4 nM,"CNc1ccn(-c2ccnc3c2cc(CN2CCC(c4c(F)cc(C(=O)N5CCC(CN6CCN(c7cc8c(cc7F)n(C7CCC(=O)NC7=O)c(=O)n8C)CC6)CC5)cc4F)CC2)n3C)c(=O)n1 (stereo not drawn) [Example 3h43, 3-(5-(4-((1-(3,5-difluoro-4-(1-((1-methyl-4-(4-(methylamino)-2-oxopyrimidin-1 (2H)-yl)-1H-pyrrolo[2,3-b]pyridin-2-yl)methyl)piperidin-4-yl)benzoyl)piperidin-4-yl)methyl)piperazin-1-yl)-6-fluoro-3-methyl-2-oxo-2,3-dihydro-1H-benzo[d]imidazol-1-yl)piperidine-2,6-dione]"
7,39.2 nM,"CNc1ccn(-c2ccnc3c2cc(CN2CCC(c4c(F)cc(C(=O)N5CCC(CN6CCN(c7ccc8c(c7)C7(CC7)C(=O)N8[C@@H]7CCC(=O)NC7=O)CC6)CC5)cc4F)CC2)n3C)c(=O)c1 (single isomer, unassigned) [Example 3u150]"
8,93.5 nM,"CNc1cc(=O)n(-c2ccnc3c2cc([C@H](C)N2CC=C(c4c(C)cc(C(=O)N5CCC(CN6CCN(c7ccc8c(c7)C7(CC7)C(=O)N8[C@H]7CCC(=O)NC7=O)C[C@@H]6C)CC5)cc4F)CC2)n3C)cc1F (single isomer, unassigned) [Example 3u65]"
9,18.9 nM,"CNc1cc(=O)n(-c2ccnc3c2cc(CN2CCC(c4c(F)cc(C(=O)N5CCC(CN6CCN(c7ccc8c(c7)C7(CC7)C(=O)N8[C@@H]7CCC(=O)NC7=O)CC6)CC5)cc4F)CC2)n3C)cc1F (single isomer, unassigned) [Example 3u289]"
10,5.9 nM,"C[C@H]1CN(Cc2ccc3c(c2)n(C)c(=O)n3C2CCC(=O)NC2=O)CCN1CC1CCN(C(=O)c2cc(F)c(C3=CCN([C@@H](C)c4cc5c(-n6cc(F)c7c(c6=O)CCN7)ccnc5n4C)CC3)c(F)c2)CC1 (stereo partly drawn) [Example 3u8, 3-(5-(((S)-4-((1-(3,5-difluoro-4-(1-((S)-1-(4-(7-fluoro-4-oxo-1,2,3,4-tetrahydro-5H-pyrrolo[3,2-c]pyridin-5-yl)-1-methyl-1H-pyrrolo[2,3-b]pyridin-2-yl)ethyl)-1,2,3,6-tetrahydropyridin-4-yl)benzoyl)piperidin-4-yl)methyl)-3-methylpiperazin-1-yl)methyl)-3-methyl-2-oxo-2,3-dihydro-1H-benzo[d]imidazol-1-yl)piperidine-2,6-dione]"
11,185 nM,"CNc1ccn(-c2ccnc3c2cc([C@H](C)N2CC=C(c4c(C)cc(C(=O)N5CCC(CN6CCN(Cc7ccc8c(c7)n(C7CC7)c(=O)n8C7CCC(=O)NC7=O)C[C@@H]6C)CC5)cc4F)CC2)n3C)c(=O)c1OC (stereo partly drawn) [Example 3u135, 3-(3-cyclopropyl-5-(((S)-4-((1-(3-fluoro-4-(1-((S)-1-(4-(3-methoxy-4-(methylamino)-2-oxopyridin-1 (2H)-yl)-1-methyl-1H-pyrrolo[2,3-b]pyridin-2-yl)ethyl)-1,2,3,6-tetrahydropyridin-4-yl)-5-methylbenzoyl)piperidin-4-yl)methyl)-3-methylpiperazin-1-yl)methyl)-2-oxo-2,3-dihydro-1H-benzo[d]imidazol-1-yl)piperidine-2,6-dione]"
12,24.2 nM,"CNc1ccn(-c2ccnc3c2cc([C@H](C)N2CC=C(c4c(C)cc(C(=O)N5CCC(CN6CCN(Cc7ccc8c(c7)C7(CCOCC7)C(=O)N8C7CCC(=O)NC7=O)CC6)CC5)cc4F)CC2)n3C)c(=O)c1 (stereo partly drawn) [Example 3u257, 3-(5-((4-((1-(3-fluoro-5-methyl-4-(1-((S)-1-(1-methyl-4-(4-(methylamino)-2-oxopyridin-1 (2H)-yl)-1H-pyrrolo[2,3-b]pyridin-2-yl)ethyl)-1,2,3,6-tetrahydropyridin-4-yl)benzoyl)-piperidin-4-yl)methyl)piperazin-1-yl)methyl)-2-oxo-2′,3′,5′,6′-tetrahydrospiro[indoline-3,4′-pyran]-1-yl)piperidine-2,6-dione]"
13,8 nM,"C[C@@H](c1cc2c(-n3cc(F)c4c(c3=O)CCN4)ccnc2n1C)N1CC=C(c2c(F)cc(C(=O)N3CCC(CN4CCN(Cc5ccc6c(c5)n(C)c(=O)n6C5CCC(=O)NC5=O)CC4)CC3)cc2F)CC1 (stereo partly drawn) [Example 3u83, 3-(5-((4-((1-(3,5-difluoro-4-(1-((S)-1-(4-(7-fluoro-4-oxo-1,2,3,4-tetrahydro-5H-pyrrolo[3,2-c]pyridin-5-yl)-1-methyl-1H-pyrrolo[2,3-b]pyridin-2-yl)ethyl)-1,2,3,6-tetrahydropyridin-4-yl)benzoyl)piperidin-4-yl)methyl)piperazin-1-yl)methyl)-3-methyl-2-oxo-2,3-dihydro-1H-benzo[d]-imidazol-1-yl)piperidine-2,6-dione]"
14,16.4 nM,"CNc1cc(=O)n(-c2ccnc3c2cc([C@H](C)N2CC=C(c4c(C)cc(C(=O)N5CCC(F)(CN6CCN(c7ccc8c(c7)C7(CC7)C(=O)N8C7CCC(=O)NC7=O)CC6)CC5)cc4F)CC2)n3C)cc1F (stereo partly drawn) [Example 3u136, 3-(5′-(4-((4-fluoro-1-(3-fluoro-4-(1-((S)-1-(4-(5-fluoro-4-(methylamino)-2-oxopyridin-1 (2H)-yl)-1-methyl-1H-pyrrolo[2,3-b]pyridin-2-yl)ethyl)-1,2,3,6-tetrahydropyridin-4-yl)-5-methyl-benzoyl)piperidin-4-yl)methyl)piperazin-1-yl)-2′-oxospiro[cyclopropane-1,3′-indolin]-1′-yl)piperidine-2,6-dione]"
15,31.8 nM,"CNc1ccn(-c2ccnc3c2cc([C@H](C)N2CC=C(c4c(C)cc(C(=O)N5CCC(CN6CCN(c7cc8c(cc7F)n(C7CCC(=O)NC7=O)c(=O)n8C)CC6)CC5)cc4F)CC2)n3C)c(=O)c1F (stereo partly drawn) [Example 3u273, 3-(6-fluoro-5-(4-((1-(3-fluoro-4-(1-((S)-1-(4-(3-fluoro-4-(methylamino)-2-oxopyridin-1 (2H)-yl)-1-methyl-1H-pyrrolo[2,3-b]pyridin-2-yl)ethyl)-1,2,3,6-tetrahydropyridin-4-yl)-5-methylbenzoyl)piperidin-4-yl)methyl)piperazin-1-yl)-3-methyl-2-oxo-2,3-dihydro-1H-benzo[d]imidazol-1-yl)piperidine-2,6-dione]"
